From publication PMC4157579, “Lysine Acetylation Controls Local Protein Conformation by Influencing Proline Isomerization” (Molecular Cell, 2014)
Ends that are not written are not given here.

T1: Spt7 bromodomain (residues 363–619) (UniProt P35177 363-619)
T1 construct: Spt7, bromodomain construct, amino acids 363-619; also called purified recombinant Spt7 bromodomain; source: recombinant, expressed and purified as described (Boubriak et al., 2009)
T1 sequence (looked up): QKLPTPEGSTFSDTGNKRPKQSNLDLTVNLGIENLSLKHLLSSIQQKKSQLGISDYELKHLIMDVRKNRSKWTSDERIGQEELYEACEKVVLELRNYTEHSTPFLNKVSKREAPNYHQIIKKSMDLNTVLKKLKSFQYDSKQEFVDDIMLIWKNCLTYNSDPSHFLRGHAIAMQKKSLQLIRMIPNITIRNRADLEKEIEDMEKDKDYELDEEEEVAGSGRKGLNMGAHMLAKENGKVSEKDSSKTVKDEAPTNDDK


What was measured:
[1] = test system: Spt7 bromodomain (residues 363–619); assay: SPR binding of H3 peptides to immobilized Spt7 bromodomain; set-up: species or system yeast; settings: for Binding to Spt7 bromodomain: SPR, Biacore T100/T200, 25°C, peptides 1-200 µM in HBS-P+, NTA chip-captured His-tagged bromodomain, 1:1 model, Figure 6A, n = 2–11
Description: (§1) We developed a second assay that involves monitoring the effect of the P16V substitution on the binding of the Spt7 bromodomain to an H3 peptide modified by acetylation at K14 and/or K18 using surface plasmon resonance (SPR) (Figures 6A, S4A, and S4B) or by pull downs (Figures 6B and S4C). Bromodomains are acetyl-lysine binding domains, found in a number of chromatin-associated proteins ([Taverna et al., 2007]) including Spt7. The function and binding specificity of the Spt7 bromodomain are currently unknown, but it preferentially interacts with hyperacetylated histones in vitro ([Hassan et al., 2007]). […] The binding of the Spt7 bromodomain to the P16V-substituted K18ac peptide improved binding by ∼2-fold. […] We reasoned that this could reflect an effect of the side chain on binding or an influence on the conformation of the A15-P16 bond. […] The corollary of this is that acetylation of K14 would correlate with the A15-P16 bond in the trans configuration, supporting ideas that the peptidyl-prolyl bond conformation is mainly determined by local effects in proteins ([Reimer et al., 1998]).
(§2) Figure 6 K14ac Promotes P16trans (A) Relative binding ± SEM (n = 2–11) assessed by surface plasmon resonance of purified recombinant Spt7 bromodomain (residues 363–619) to the indicated H3 peptides (11–26). (B) Coomassie-stained gel showing a pull-down experiment, quantified relative to the K18ac peptide, with the indicated H3 peptides and the purified recombinant Spt7 bromodomain (n = 3). (C) A chymotrypsin-coupled assay for proline isomers using synthetic hexamers based on GGKAPF-pNA (unmodified). pNA is released by chymotrypsin cleavage only from the trans-proline-containing peptide. (D) K14ac and substitutions at K14 influence isomerization at A15-P16 and pNA release, expressed as mean initial rate ± SEM (n = 4–5) over the first 0.6–10.2 s of the reaction. (E) Schematic showing how K14ac or the K14R substitution influence A15-P16 conformation. (F) Schematic showing how dynamic K14ac influences A15-P16 conformation and K4me3 (K4 and K14 denote that these residues are not trimethylated or acetylated respectively). (G) The balance of positive-acting factors (right panel) and negative-acting factors (left panel) controls levels of K4me3 at individual genes. […] See also Figure S4. […]
(n=5771) with the ratios of H3-normalised K4me3 in the K14A and P16V strains relative to the WT strain. Genes with ratios > 2 (n = 7 and 4 for K14A/WT and P16V/WT respectively) have been removed for clarity. Highlighted are the genes with the 200 highest and lowest ratios selected for further analysis (K14/P16-independent and K14/P16-dependent gene classes respectively). (C) Overlap (%) between the four selected gene classes from Figure S3B and the genes temporally expressed during the yeast metabolic cycle (YMC: OX, oxidative; R/B, reductive building; R/C, reductive charging phase), induced/repressed by the environmental stress response (ESR), classed as ribosomal protein genes (RPGs) or ribosome biogenesis genes (Ribis), or regulated predominantly by SAGA or TFIID. […]
YMC and ESR expression data were taken from (Tu et al., 2005) and (Gasch et al., 2000) respectively. SAGA/TFIID-regulated genes were obtained from (Huisinga and Pugh, […]
Figure S4. (Related to Figure 6)
(A) Surface plasmon resonance (SPR) affinity fits for the indicated H3 peptides encompassing residues 11-26 binding to the Spt7 bromodomain (residues 363-619). Also shown is a typical sensorgram of H3 peptide binding to the Spt7 bromodomain […]
values ± SEM for Spt7 binding to variously-modified H3 peptides. (C) A peptide pull-down experiment with a range of H3 peptides and the WT or substituted Spt7 bromodomain […]
Peptides for bromodomain interaction studies
Peptides were synthesized at GL Biochem (Shanghai) LTD, China and Proteogenix, France.
(§3) Purity was determined with MALDI-TOF mass spectrometry and HPLC and the peptides used […]
The peptide sequences are listed in the […]

[2] = test system: Spt7 bromodomain (residues 363–619); assay: Peptide pull-down with Spt7 bromodomain; assay type: binding, yeast; settings: SulfoLink resin, bromodomain 30 µg/ml, 2 h at 4°C, Coomassie gel, relative to K18ac peptide, Figure 6B, n = 3
Description: as §1, §2
(n=5771) with the ratios of H3-normalised K4me3 in the K14A and P16V strains relative to the WT strain. Genes with ratios > 2 (n = 7 and 4 for K14A/WT and P16V/WT respectively) have been removed for clarity. Highlighted are the genes with the 200 highest and lowest ratios selected for further analysis (K14/P16-independent and K14/P16-dependent gene classes respectively). […]
as §3

[3] = biological target: T1, Spt7 bromodomain (residues 363–619); assay: SPR; peptides binding to immobilized Spt7 bromodomain; Biacore T100 and T200, 25°C; 1:1 binding model; relative binding; settings: both partners purified

Molecule | Binding to Spt7 bromodomain [1] | also measured
TGGKAPRKQLASKAARC [unmodified H3 peptide, H3 peptide (11–26), unmodified, for bromodomain studies] | lack of binding | Binding to Spt7 bromodomain [2]: lack of binding
TGGRAPR(Kac)QLASKAARC [K14R-K18ac, H3 peptide (11–26), K14R, acetylated K18] | no binding was observed | –
TGG(Kac)APR(Kac)QLASKAARC [peptide acetylated at both K14 and K18] | binding to the Spt7 bromodomain similar to the P16V-K18ac peptide | –
TGGRAVR(Kac)QLASKAARC [valine substitution at P16 in the K14R-K18ac peptide] | restored binding at levels between the P16V-K18ac and K18ac peptides | –
TGGKAVR(Kac)QLASKAARC [P16V-K18ac, H3 peptide (11–26), P16V, acetylated K18] | – | Improvement of binding to Spt7 bromodomain on P16V substitution ([1]; P16V-substituted versus K18ac peptide, SPR (text does not say whether SPR or pull-down), 25°C): ~2 fold
TGG(Kac)APRKQLASKAARC [peptide acetylated at K14, H3 peptide (11–26) acetylated at K14, for bromodomain studies] | lack of binding | Binding to Spt7 bromodomain [2]: lack of binding
TGGRAVRK(Ac)QLASKAAR (peptide, UniProt P61830 12-27, looked up, histone H3, residues 11-26; also called K14R-P16V-K18ac peptide; source: synthetic peptide (GL Biochem and Proteogenix)) [K14R-K18ac H3 peptide (11–26) with a valine substitution at P16] | – | binding result [3]: binds
TGGKAVRK(Ac)QLASKAAR (peptide, UniProt P61830 12-27, looked up, histone H3, residues 11-26; also called P16V-K18ac peptide; P16V-K18ac; source: synthetic peptide (GL Biochem and Proteogenix)) [P16V-substituted K18ac H3 peptide (11–26)] | – | fold change of binding against the K18ac peptide [3]: ~2 fold
